Measured values published in US8481459B2, “Chemical inhibitors of ethylene biosynthesis” (Academia Sinica, priority 2010, dated 2013).

System: gene expression in etiolated eto1-4 seedlings
Assay: Transcriptional profiling (ATH1 GeneChip microarray) of etiolated eto1-4 seedlings
Assay type: in vivo, Arabidopsis thaliana
Experimental: For chemical treatments, seeds were sown on 0.5×MS agar medium supplemented with 10 μM chemicals (AVG, compounds 9393, 9370, and 7303) or DMSO (as control). Arabidopsis seeds were stratified in the dark at 4° C. for 4 days, then germinated in the dark for 3 days at 22° C. Approximately 2,000 etiolated seedlings of the wild type or eto1-4 were used to collect tissues for preparation of total RNA in each microarray experiment with Arabidopsis ATH1 GeneChip (Affymetrix). Extraction of RNA followed an established protocol (Chang, et al. (1993) Plant Mol. Biol. Rep. 11, 113-117). Total RNA (10 μg) was used to prepare biotinylated cRNA for hybridization to ATH1 GeneChip in the experiments disclosed herein. Experiments were repeated by 2 independent biological duplicates, and candidate genes present in both experiments were selected for further analysis. The MASS method was used for data analysis and normalization by all sample medium. Candidate genes were selected by the following criteria. First, genes with 1.5-fold differential expression between the wild type and eto1-4 were selected as the master gene pool, which was then used for comparison in treatments with AVG and individual exemplary compounds. Data were presented in hierarchical clustering and Venn diagram format. Agilent GeneSpring GX and Bioconductor software were used to analyze the expression profile data. Gene Ontology descriptions were generated by GeneSpring GX and further referred to the TAR GO database. Raw data are available in the GEO database (http://www.ncbi.nlm.nih.gov/geo) with Accession no. GSE20897.
The filtered and normalized expression data set from 22810 probes on the ATH1 Genechip was used for hierarchical clustering of gene expression profiles for comparison between AVG and the exemplary invention compounds in eto1-4. It was identified that 1,446 genes show at least 1.5-fold difference in expression between the WT and eto1-4 and used them as the master gene pool for clustering analysis (FIG. 7A). […] These genes likely contribute to the etiolated phenotype of eto1-4 by responding to elevated endogenous ethylene. To determine whether the exemplary compounds have specific r overlapping functions with AVG to suppress the eto1-4 phenotype, genes that are regulated by individual exemplary invention compounds and AVG for Venn diagram analysis were clustered (FIG. 7B). More than 63% of genes (356/561 for compound 9393; 389/561 for compound 9370; 399/561 for compound 7303; FIG. 7B) with expression associated with AVG were co-regulated by the exemplary invention compounds, which indicates an overlap function in suppression of the ethylene phenotype in eto1-4. […] Next genes co-regulated by all of the exemplary invention compounds and AVG were examined by performing a clustering analysis using the co-regulated genes identified in FIG. 7B: 356 (compound 9393 vs AVG), 389 (compound 9370 vs AVG) and 399 genes (compound 7303 vs AVG). It was uncovered that 276 genes were co-regulated by all of the exemplary invention compounds and AVG (FIG. 7C and Table 2). On the basis of GO descriptions generated by Gene Spring GX and TAIR database, the 276 genes were divided into subgroups related to their biological functions (Table 2). […] In addition, stress- and pathogenesis-related genes were among the co-regulated genes, possibly because ethylene is involved in both biotic and abiotic stresses.
Genes (1446 non-redundant loci) were selected by 1.5-fold differential expression between eto1-4 and WT as the master pool for analysis. These genes were used for comparison between chemical treatments by AVG and the exemplary invention compounds. The finalized 276 genes that are co-regulated by AVG and all of the exemplary invention compounds are shown. Locus ID also present in Nemhauser et al. (Nemhauser, et al. (2006) Cell 126, 467-475).

[1] = of 1446 genes differentially expressed between WT and eto1-4, 10 μM
[2] = ratio eto1-4 treated to eto1-4 (no treatment)

CC1(C)CC(=O)c2cnc(NC3CCCC3)nc2C1 [Compound 9393]
number of genes co-regulated with AVG (of 561 genes associated with AVG, 10 μM): 356 genes | number of genes regulated (expression reverted close to WT) [1]: 629 genes | percentage of genes regulated (expression reverted close to WT) [1]: 43.5% | number of genes regulated specifically, not related to AVG treatment (of all genes regulated by the compound (629, 728, 650), 10 μM): 273 genes | Signal Fold Change AT1G03457, unknown biological function [2]: 2.24 | Signal Fold Change AT1G03660, unknown biological function [2]: 1.84 | Signal Fold Change AT1G05010 ACC oxidase [2]: 0.28 | Signal Fold Change AT1G05760 jacalin lectin protein [2]: 2.69 | Signal Fold Change AT1G06720 expressed protein [2]: 1.15 | Signal Fold Change AT1G07280, unknown biological function [2]: 0.44 | Signal Fold Change AT1G07560 leucine-rich repeat protein kinase [2]: 2.23 | Signal Fold Change AT1G08650 phosphoenolpyruvate carboxylase kinase [2]: 1.96 | Signal Fold Change AT1G08990 glycogenin glucosyltransferase [2]: 1.61 | Signal Fold Change AT1G09530 phytochrome interacting factor 3 [2]: 0.35 | Signal Fold Change AT1G10760 starch excess protein (SEX1) [2]: 0.46 | Signal Fold Change AT1G13430, response to cytokinin stimulus, sulfotransferase protein [2]: 0.38 | Signal Fold Change AT1G14540 anionic peroxidase [2]: 0.46 | Signal Fold Change AT1G15380 lactoylglutathione lyase [2]: 1.96 | Signal Fold Change AT1G17970, unknown biological function [2]: 2.17 | Signal Fold Change AT1G18880 proton-dependent oligopeptide transport (POT) protein [2]: 2.00 | Signal Fold Change AT1G20190, cell wall organization and biogenesis, expansin (EXP11) [2]: 0.43 | Signal Fold Change AT1G22740 Ras-related protein (RAB7) [2]: 2.34 | Signal Fold Change AT1G23060, unknown biological function [2]: 0.40 | Signal Fold Change AT1G26930, unknown biological function [2]: 0.50 | Signal Fold Change AT1G27380 p21-rho-binding domain-containing protein [2]: 2.10 | Signal Fold Change AT1G29520, unknown biological function [2]: 1.83 | Signal Fold Change AT1G30750, unknown biological function [2]: 2.23 | Signal Fold Change AT1G31710 copper amine oxidase [2]: 3.17 | Signal Fold Change AT1G32410 vacuolar protein sorting 55 protein [2]: 1.62 | Signal Fold Change AT1G32560 late embryogenesis abundant group 1 domain-containing protein [2]: 1.35 | Signal Fold Change AT1G33470, unknown biological function [2]: 2.32 | Signal Fold Change AT1G33790, unknown biological function [2]: 0.20 | Signal Fold Change AT1G34040, unknown biological function [2]: 1.69 | Signal Fold Change AT1G35350, unknown biological function [2]: 3.85 | Signal Fold Change AT1G35612, unknown biological function [2]: 3.38 | Signal Fold Change AT1G42470, unknown biological function [2]: 4.11 | Signal Fold Change AT1G44800, unknown biological function [2]: 1.86 | Signal Fold Change AT1G44830 AP2-containing transcription factor [2]: 0.34 | Signal Fold Change AT1G48480 leucine-rich repeat trans-membrane protein kinase [2]: 2.65 | Signal Fold Change AT1G49660 expressed protein [2]: 0.38 | Signal Fold Change AT1G50560 cytochrome P450 [2]: 1.77 | Signal Fold Change AT1G52830 auxin-responsive protein [2]: 3.44 | Signal Fold Change AT1G56010 transcription activator NAC1 [2]: 2.29 | Signal Fold Change AT1G56020, unknown biological function [2]: 0.60 | Signal Fold Change AT1G58070, unknown biological function [2]: 2.13 | Signal Fold Change AT1G59590, unknown biological function [2]: 2.57 | Signal Fold Change AT1G59740 proton-dependent oligopeptide transport (POT) protein [2]: 0.46 | Signal Fold Change AT1G62290 aspartyl protease protein [2]: 0.32 | Signal Fold Change AT1G62510 lipid transfer protein [2]: 1.63 | Signal Fold Change AT1G62620, unknown biological function [2]: 2.65 | Signal Fold Change AT1G64200 V-ATPase E subunit [2]: 2.10 | Signal Fold Change AT1G65510, unknown biological function [2]: 2.13 | Signal Fold Change AT1G65920, unknown biological function [2]: 0.37 | Signal Fold Change AT1G66230 myb transcription factor (MYB20) [2]: 3.04 | Signal Fold Change AT1G67030 zinc finger (C2H2 type) protein [2]: 6.01 | Signal Fold Change AT1G68230, unknown biological function [2]: 2.42 | Signal Fold Change AT1G68520 zinc finger (B-box type) protein [2]: 2.45 | Signal Fold Change AT1G69570 Dof-type zinc finger-containing protein [2]: 3.88 | Signal Fold Change AT1G70210 cyclin delta-1 [2]: 3.05 | Signal Fold Change AT1G70850 Bet v I allergen protein [2]: 7.24 | Signal Fold Change AT1G70890 major latex protein [2]: 5.37 | Signal Fold Change AT1G71030 myb transcription factor (MYB2) [2]: 4.86 | Signal Fold Change AT1G71740, unknown biological function [2]: 2.19 | Signal Fold Change AT1G72230 plastocyanin like protein [2]: 2.45 | Signal Fold Change AT1G73220 sugar transporter protein [2]: 2.95 | Signal Fold Change AT1G73300 serine carboxypeptidase S10 protein [2]: 1.94 | Signal Fold Change AT1G73310 serine carboxypeptidase S10 protein [2]: 2.66 | Signal Fold Change AT1G73330 protease inhibitor [2]: 2.84 | Signal Fold Change AT1G73590 auxin efflux carrier protein [2]: 2.02 | Signal Fold Change AT1G73640, small GTPase mediated signal transduction, Ras-related GTP-binding protein [2]: 1.94 | Signal Fold Change AT1G73830 bHLH protein [2]: 0.28 | Signal Fold Change AT1G75500, unknown biological function [2]: 3.12 | Signal Fold Change AT1G76220, unknown biological function [2]: 3.40 | Signal Fold Change AT1G76500, photomorphogenesis, DNA-binding protein [2]: 0.39 | Signal Fold Change AT1G76540 cell division control protein [2]: 2.16 | Signal Fold Change AT1G76790, unknown biological function [2]: 2.90 | Signal Fold Change AT1G78240 dehydration-responsive protein [2]: 0.49 | Signal Fold Change AT1G80380 phosphoribulokinase [2]: 2.17 | Signal Fold Change AT2G01910, microtubule nucleation, microtubule associated protein (MAP65/ASE1) protein [2]: 2.21 | Signal Fold Change AT2G02820 myb transcription factor (MYB88) [2]: 3.34 | Signal Fold Change AT2G02850 plantacyanin [2]: 0.27 | Signal Fold Change AT2G16580 auxin-responsive protein [2]: 2.33 | Signal Fold Change AT2G16990, unknown biological function [2]: 2.49 | Signal Fold Change AT2G19590 ACC oxidase [2]: 0.29 | Signal Fold Change AT2G19970, unknown biological function [2]: 2.19 | Signal Fold Change AT2G20080, unknown biological function [2]: 4.77 | Signal Fold Change AT2G20670, unknown biological function [2]: 2.36 | Signal Fold Change AT2G21820, unknown biological function [2]: 1.08 | Signal Fold Change AT2G21880 Ras-related GTP-binding protein [2]: 3.83 | Signal Fold Change AT2G22860 phytosulfokines 2 (PSK2) [2]: 2.20 | Signal Fold Change AT2G24150 expressed protein (response to hormone stimulus) [2]: 2.23 | Signal Fold Change AT2G25900 zinc finger (CCCH-type) protein [2]: 1.27 | Signal Fold Change AT2G26070 expressed protein (response to ethylene stimulus) [2]: 0.32 | Signal Fold Change AT2G26440 pectinesterase protein [2]: 0.36 | Signal Fold Change AT2G26740 epoxide hydrolase [2]: 0.29 | Signal Fold Change AT2G27140 heat shock protein [2]: 2.32 | Signal Fold Change AT2G27370, unknown biological function [2]: 1.90 | Signal Fold Change AT2G28305, unknown biological function [2]: 2.70 | Signal Fold Change AT2G28410, unknown biological function [2]: 2.86 | Signal Fold Change AT2G29340 short-chain dehydrogenase [2]: 0.47 | Signal Fold Change AT2G29440, toxin catabolic process, glutathione S-transferase [2]: 0.31 | Signal Fold Change AT2G30360 CBL-interacting protein kinase 11 (CIPK11) [2]: 1.81 | Signal Fold Change AT2G33380 calcium-binding RD20 protein [2]: 0.26 | Signal Fold Change AT2G33990, unknown biological function [2]: 2.38 | Signal Fold Change AT2G34300, unknown biological function [2]: 0.40 | Signal Fold Change AT2G34500 cytochrome P450 [2]: 3.82 | Signal Fold Change AT2G34510, unknown biological function [2]: 2.66 | Signal Fold Change AT2G34700, unknown biological function [2]: 1.10 | Signal Fold Change AT2G35300 late embryogenesis abundant group 1 domain-containing protein [2]: 1.93 | Signal Fold Change AT2G35710 glycogenin glucosyltransferase [2]: 2.39 | Signal Fold Change AT2G36350 protein kinase [2]: 0.54 | Signal Fold Change AT2G36410, unknown biological function [2]: 2.46 | Signal Fold Change AT2G37130 peroxidase 21 [2]: 1.93 | Signal Fold Change AT2G38760, unknown biological function [2]: 2.89 | Signal Fold Change AT2G38790, unknown biological function [2]: 1.78 | Signal Fold Change AT2G39010 aquaporin [2]: 1.84 | Signal Fold Change AT2G39310, unknown biological function [2]: 1.97 | Signal Fold Change AT2G39980, unknown biological function [2]: 0.14 | Signal Fold Change AT2G40420 amino acid transporter [2]: 1.87 | Signal Fold Change AT2G41090, unknown biological function [2]: 0.26 | Signal Fold Change AT2G41230, unknown biological function [2]: 0.08 | Signal Fold Change AT2G42320, unknown biological function [2]: 0.55 | Signal Fold Change AT2G43050 pectinesterase protein [2]: 2.06 | Signal Fold Change AT2G43535 trypsin inhibitor [2]: 4.42 | Signal Fold Change AT2G44110 seven transmembrane MLO protein [2]: 0.45 | Signal Fold Change AT2G44130 kelch repeat containing F-box protein [2]: 3.36 | Signal Fold Change AT2G47510 fumarate hydratase [2]: 0.53 | Signal Fold Change AT2G47550 pectinesterase protein [2]: 0.39 | Signal Fold Change AT2G48030, unknown biological function [2]: 2.18 | Signal Fold Change AT3G04010 glycosyl hydrolase [2]: 2.09 | Signal Fold Change AT3G05990, signal transduction, phosphodiesterase leucine-rich repeat protein [2]: 2.05 | Signal Fold Change AT3G09020, unknown biological function [2]: 2.36 | Signal Fold Change AT3G09780 protein kinase [2]: 0.55 | Signal Fold Change AT3G10080, unknown biological function [2]: 2.22 | Signal Fold Change AT3G10340 phenylalanine ammonia-lyase [2]: 2.17 | Signal Fold Change AT3G11550, unknown biological function [2]: 2.20 | Signal Fold Change AT3G12030, DNA repair, expressed protein [2]: 1.73 | Signal Fold Change AT3G12500 basic endocexemplary inase [2]: 1.85 | Signal Fold Change AT3G13980, unknown biological function [2]: 6.83 | Signal Fold Change AT3G14370 protein kinase [2]: 0.30
